Drawing on patent EP0330992A2, “Novel cyclobutane Derivatives, processes for their preparation and pharmaceutical compositions comprising them” (Nippon Kayaku Kabushiki Kaisha, priority 1988, dated 1989), this text covers IC50 for 9 compounds.

The structures appear in SMILES notation. Values after ≈ are worked out from the molar mass of the structure shown.

Holding throughout (format): cell-based
The test system of experiment [1] is human cytomegalovirus (HCMV). The experiment is described as follows: Anticytomegaloviral plaque formation inhibition in human fetal fibroblast (Test Example 2, Method 2). The note with it: Human betaherpesvirus 5, 240 h, AO169 strain, 10 days, read-out: IC₅₀ HCMV. On the procedure:
An activity against human cytomegalovirus (HCMV) which was DNA virus was examined by the following method.
Anticytomegaloviral activity was determined in terms of 50% inhibitory concentration (IC₅₀) by infecting 35 mm dish having a single layer of human fetal fibroblast with 100 PFU (plaque forming unit) of cytomegalovirus (AO169 strain), adsorbing for an hour, laying thereon a medium containing the compound of each concentration supplemented with 0.5% agarose and 2% fetal calf serum, culturing at 37°C for 10 days in a 5% (v/v) carbon dioxide gas incubator and measuring formation of plaque.

The subject of experiment [2] is mouse leukemia P388 cells. The experiment is described as follows: Growth inhibition of P388 cells, cell count (Test Example 5, Method 6). The settings on record: 50% growth inhibitory concentration, 48 hours, read-out: IC₅₀ P338. How it is done: (§1) Anticancer activity against human uterine cervical cancer HeLa S₃, mouse leukemia L1210 and P388 cells was examined by the following method. P388 and L1210 cells were inoculated on a 24 well plate and the compound was added thereto followed by incubation at 37°C for 48 hours in 5% CO₂. The number of cells after the incubation was counted with a Caulter counter. The growth inhibition rate of the treated group to the control group was calculated according to the equation below and 50% growth inhibitory concentration (IC₅₀, µg/ml) was determined by the Litchfield method. Growth inhibition rate (%) = [1 - (NT-N₀)/(Nc-N₀)] x 100 wherein NT = cell count of the treated group N₀ = cell count at the onset of incubation Nc = cell count of the control group

Experiment [3] has as its system herpes simplex virus type 1 (HSV-I). The experiment is described as follows: Plaque formation inhibition in Vero cells (Test Example 1, Method 1). The note with it: Human alphaherpesvirus 1, 48 hours, read-out: IC₅₀ HSV-1. On the procedure: (§2) Antiviral activity against herpes simplex virus type 1 (HSV-I) and herpes simplex virus type 2 (HSV-II) which were DNA viruses was examined by the following methods.
(§3) A 6 well multiplate bearing a single layr of Vero cells (derived from African green monkey kidney cell) was infected with 100-150 PFU (plaque forming unit) of virus. After (infection) at 37°C for an hour, agar medium (Eagle's MEM medium supplemented with 1.5% agar) containing a sample of each concentration was put on the single layer followed by culturing at 37°C for 48 hours in a 5% (v/v) carbon dioxide incubator. Thereafter, formation of plaque was measured to determine 50% inhibitory concentration (IC₅₀).

For experiment [4], the system named is human uterine cervical cancer HeLa S₃. The experiment is described as follows: Growth inhibition of HeLa S3 cells, Methylene Blue staining (Test Example 5, Method 5). The note with it: 50% growth inhibitory concentration, 72 hours, read-out: IC₅₀ HeLaS₃. On the procedure: Anticancer activity against human uterine cervical cancer HeLa S₃, mouse leukemia L1210 and P388 cells was examined by the following method. HeLa S₃ cells were prepared in a concentration of 7.5 x 10³ cells/ml and inoculated on a 96 well flat bottom plate by 0.2 ml/well each. After culturing at 37°C for 24 hours in a 5% CO₂ incubator, 10 µl of the compound was added thereto followed by culturing for 72 hours. After culturing, the culture medium of each well was withdrawn and fixed with methanol. Then, 0.1 ml/well each of 0.05% Methylene Blue/10 mM-Tris-HCl (pH 8.5) solution was added to stain at room temperature for 30 minutes. After withdrawing the dyeing solution from each well using an aspirator, the well was washed 3 times with pure water. After adding 3% HCl in a ratio of 0.2 ml/well, the well was sealed and allowed to stand at room temperature for about 24 hours and the dye was then extracted from the cells. Absorbance of each well at 660 nm was measured with Dynatec microplate reader. The growth inhibition rate treated wells to the control wells were calculated according to the equation below and 50% growth inhibitory concentration (IC₅₀, µg/ml) was determined by the Litchfield method. Growth inhibition rate (%) = (1 - A₁/A₀) x 100 wherein A₁ = Absorbance of the treated group A₀ = Absorbance of the control group

Experiment [5] relates to mouse leukemia L1210 cells. The experiment is described as follows: Growth inhibition of L1210 cells, cell count (Test Example 5, Method 6). The note with it: 50% growth inhibitory concentration, 48 hours, read-out: IC₅₀ L1210. How it is done:
as §1

Another experiment concerns AIDS virus (HIV). The experiment is described as follows: Anti-HIV activity in MT-4 cells, viral antigen by fluorescent antibody method (Test Example 4, Method 4). The settings on record: Human immunodeficiency virus 1, MT4, 96 h, read-out: IC₅₀ HIV. How it is done: Activity against AIDS virus (HIV) which was RNA virus was examined by the following method.
In an anti-HIV (human immunodeficiency virus) active 24 well tray were charged about 50,000/ml of MT-4 cells. Further […] of a solution containing a definite amount of the compound of this invention was added thereto. After culturing at 37°C for 2 hours in a 5% (v/v) carbon dioxide gas incubator, 10³-10⁴ infection units of HIV were added thereto. After culturing for 4 days, a part of the culture solution was smeared on a slide glass and fixed with acetone. Then, occurrence of viral antigen was observed by fluorescent antibody method.
As primary antibody in the fluorescent antibody method, serum from the patient with AIDS was used and FITC-labeled anti-human IgG was used as secondary antibody.

Experiment [6] deals with herpes simplex virus type 2 (HSV-II). The experiment is described as follows: Plaque formation inhibition in Vero cells (Test Example 1, Method 1). The note with it: Human alphaherpesvirus 2, 48 hours, read-out: IC₅₀ HSV-2. On the procedure: as §2, §3
The next experiment concerns hepatitis B virus (HBV). The experiment is described as follows: Hepatitis B virus DNA in liver cell line HB611, Southern method (Test Example 3, Method 3). The note with it: 360 h, HB611 cells, 15 days, HBV DNA by Southern method, read-out: IC₅₀ HBV. How it is done:
Activity against hepatitis B virus (HBV) which was DNA virus was examined by the following method.
Incubated liver cell line HB611 (Proc. Natl. Acad. Sci. USA, 84 (1987), 444) capable of producing and releasing activated hepatitis B virus was cultured in modified Eagle's medium (GIBCO) at 37°C in 5% CO₂ in the presence 10% fetal calf serum, 200 µg/ml of G418 and 100 U/ml each of penicillin and streptomycin. The culture was inoculated on a 6 well plate in 5 x 10⁴ cells/well (35 mm). When 50% confluent state was achieved 1 or 2 days after, a definite quantity of this compound was added and the mixture was cultured. While exchanging with a medium containing the compound in the same concentration every 3 other days, incubation was continued for 15 days. Thereafter the medium was removed. The cells were treated with 0.5 ml of lysis buffer (10 mM Tris HCl, pH 7.8/5 mM Na₂EDTA, 1% SDS/0.1 mg/ml Pronase K) at 37°C for an hour. The resulting DNA was treated with RNase and purified by treatment with phenol and chloroform and then precipitation with ethanol.
Then, 5 µg of DNA was treated with Hind III and DNA pattern was analyzed by the Southern method using as a probe ³²P-labeled hepatitis B virus DNA.

With `O=c1[nH]cnc2c1ncn2[C@@H]1C[C@H](CO)[C@H]1O` (racemic) [Compound 4-2, (±)-9-[(1β,2α,3β)-2-hydroxy-3-hydroxymethylcyclobutan-1-yl]hypoxanthine], the IC50 in experiment [1] is 2.8 µg/mL (≈ 11.9 µM).

Consider `Nc1nc(Cl)c2ncn([C@@H]3C[C@H](CO)[C@H]3O)c2n1` (racemic) [Compound 4-3, (±)-2-amino-6-chloro-9-[(1β,2α,3β)-2-hydroxy-3-hydroxymethylcyclobutan-1-yl]purine], for which the IC50 in experiment [2] came out at 12 µg/mL (≈ 44.5 µM); in experiment [3] it was 8.5 µg/mL (≈ 31.5 µM); in experiment [1], 3.3 µg/mL (≈ 12.2 µM); in experiment [4], 66 µg/mL (≈ 245 µM); in experiment [5], 8 µg/mL (≈ 29.7 µM).

With `Nc1nc(N)c2ncn([C@@H]3C[C@H](CO)[C@H]3O)c2n1` (racemic) [Compound 4-4, (±)-2,6-diamino-9-[(1β,2α,3β)-2-hydroxy-3-hydroxymethylcyclobutan-1-yl]purine], the IC50 in experiment [2] was determined as 3.4 µg/mL (≈ 13.6 µM); in experiment [3], 2.2 µg/mL (≈ 8.79 µM); with AIDS virus (HIV), 3 µg/mL (≈ 12 µM); in experiment [1], 0.69 µg/mL (≈ 2.76 µM); in experiment [4], 21 µg/mL (≈ 83.9 µM); in experiment [5] it was 2.4 µg/mL (≈ 9.59 µM).

For the compound `Nc1ncnc2c1ncn2[C@@H]1C[C@H](CO)[C@H]1O` (racemic) [Compound 7, (±)-9-[(1β,2α,3β)-2-hydroxy-3-hydroxymethylcyclobutan-1-yl]adenine], the IC50 in experiment [2] was found to be 1.64 µg/mL (≈ 6.97 µM); in experiment [3], 4 µg/mL (≈ 17 µM); in experiment [1], 0.45 µg/mL (≈ 1.91 µM); in experiment [4], 6.97 µg/mL (≈ 29.6 µM); in experiment [5], 1.84 µg/mL (≈ 7.82 µM).

Regarding `Nc1nc2c(ncn2[C@@H]2C[C@H](CO)[C@H]2O)c(=O)[nH]1` (racemic) [Compound 9, (±)-9-[(1β,2α,3β)-2-hydroxy-3-hydroxymethylcyclobutan-1-yl]guanine], the IC50 in experiment [2] is 2.57 µg/mL (≈ 10.2 µM); in experiment [6], 0.31 µg/mL (≈ 1.23 µM); in experiment [3] it was 0.3 µg/mL (≈ 1.19 µM); in experiment [1] it was 0.95 µg/mL (≈ 3.78 µM); in experiment [4], 10.9 µg/mL (≈ 43.4 µM); in experiment [5], 2.56 µg/mL (≈ 10.2 µM).

Consider `[N-]=[N+]=N[C@@H]1[C@@H](CO)C[C@H]1n1cc(F)c(=O)[nH]c1=O` (racemic) [Compound 14, (±)-1-[(1β,2α,3β)-2-azido-3-hydroxymethylcyclobutan-1-yl]-5-fluoro-2,4(1H,3H)-pyrimidinedione], for which the results for the IC50 (in experiment [1]; in the experiment with hepatitis B virus (HBV)) were 20 µg/mL (≈ 78.4 µM) and 32 µg/mL (≈ 125 µM), respectively.

`Cc1cn([C@@H]2C[C@H](CO)[C@H]2N)c(=O)[nH]c1=O` (racemic) [Compound 17, (±)-1-[(1β,2α,3β)-2-amino-3-hydroxymethylcyclobutan-1-yl]-5-methyl-2,4(1H,3H)-pyrimidinedione]: the IC50 in the experiment on hepatitis B virus (HBV) was 35 µg/mL (≈ 155 µM).

Regarding `Nc1ncnc2c1ncn2[C@H]1C[C@@H](CO)C1` [Compound 2-1, 9-[(1β,3β)-3-hydroxymethylcyclobutan-1-yl]adenine], the IC50 in experiment [2] was 34.1 µg/mL (≈ 156 µM); with AIDS virus (HIV) it was 0.3 µg/mL (≈ 1.37 µM); with hepatitis B virus (HBV), 2 µg/mL (≈ 9.12 µM); in experiment [4] it was 100 µg/mL (≈ 456 µM); in experiment [5] it was 63.1 µg/mL (≈ 288 µM).

Take `Nc1nc2c(ncn2[C@H]2C[C@@H](CO)C2)c(=O)[nH]1` [Compound 2-2, 9-[(1β,3β)-3-hydroxymethylcyclobutan-1-yl]guanine]: the IC50 came out at 11.5 µg/mL (≈ 48.9 µM) in experiment [2]; 3.6 µg/mL (≈ 15.3 µM) in experiment [6]; 1.6 µg/mL (≈ 6.8 µM) in experiment [3]; 10 µg/mL (≈ 42.5 µM) in the experiment on AIDS virus (HIV); 2.6 µg/mL (≈ 11.1 µM) in experiment [1]; 30 µg/mL (≈ 128 µM) in experiment [4]. The IC50 in experiment [5] amounted to 23.1 µg/mL (≈ 98.2 µM).
